{"source": "paper PMC6691788", "about": "“Design and synthesis of phthalazine-based compounds as potent anticancer agents with potential antiangiogenic activity via VEGFR-2 inhibition” (Journal of Enzyme Inhibition and Medicinal Chemistry, 2019)", "key": {"[1]": {"system": "RXF 393", "assay": "NCI 60 cell panel SRB screen", "type": "cell-based", "conditions": "Homo sapiens; RXF 393, single dose 10 μM; read-out: percent cell growth promotion"}, "[2]": {"system": "SR", "assay": "NCI 60 cell panel SRB screen", "type": "cell-based", "conditions": "Homo sapiens, single dose 10 μM, read-out: percent cell growth promotion"}, "[3]": {"system": "SNB-19", "assay": "NCI 60 cell panel SRB screen", "type": "cell-based", "conditions": "Homo sapiens; SNB-19, single dose 10 μM; read-out: percent cell growth promotion"}, "[4]": {"target": "T1, VEGFR-2 tyrosine kinase (Homo sapiens, UniProt P35968)", "T1 construct": "purchased BPS Bioscience 40301", "T1 sequence (P35968 20-1356)": "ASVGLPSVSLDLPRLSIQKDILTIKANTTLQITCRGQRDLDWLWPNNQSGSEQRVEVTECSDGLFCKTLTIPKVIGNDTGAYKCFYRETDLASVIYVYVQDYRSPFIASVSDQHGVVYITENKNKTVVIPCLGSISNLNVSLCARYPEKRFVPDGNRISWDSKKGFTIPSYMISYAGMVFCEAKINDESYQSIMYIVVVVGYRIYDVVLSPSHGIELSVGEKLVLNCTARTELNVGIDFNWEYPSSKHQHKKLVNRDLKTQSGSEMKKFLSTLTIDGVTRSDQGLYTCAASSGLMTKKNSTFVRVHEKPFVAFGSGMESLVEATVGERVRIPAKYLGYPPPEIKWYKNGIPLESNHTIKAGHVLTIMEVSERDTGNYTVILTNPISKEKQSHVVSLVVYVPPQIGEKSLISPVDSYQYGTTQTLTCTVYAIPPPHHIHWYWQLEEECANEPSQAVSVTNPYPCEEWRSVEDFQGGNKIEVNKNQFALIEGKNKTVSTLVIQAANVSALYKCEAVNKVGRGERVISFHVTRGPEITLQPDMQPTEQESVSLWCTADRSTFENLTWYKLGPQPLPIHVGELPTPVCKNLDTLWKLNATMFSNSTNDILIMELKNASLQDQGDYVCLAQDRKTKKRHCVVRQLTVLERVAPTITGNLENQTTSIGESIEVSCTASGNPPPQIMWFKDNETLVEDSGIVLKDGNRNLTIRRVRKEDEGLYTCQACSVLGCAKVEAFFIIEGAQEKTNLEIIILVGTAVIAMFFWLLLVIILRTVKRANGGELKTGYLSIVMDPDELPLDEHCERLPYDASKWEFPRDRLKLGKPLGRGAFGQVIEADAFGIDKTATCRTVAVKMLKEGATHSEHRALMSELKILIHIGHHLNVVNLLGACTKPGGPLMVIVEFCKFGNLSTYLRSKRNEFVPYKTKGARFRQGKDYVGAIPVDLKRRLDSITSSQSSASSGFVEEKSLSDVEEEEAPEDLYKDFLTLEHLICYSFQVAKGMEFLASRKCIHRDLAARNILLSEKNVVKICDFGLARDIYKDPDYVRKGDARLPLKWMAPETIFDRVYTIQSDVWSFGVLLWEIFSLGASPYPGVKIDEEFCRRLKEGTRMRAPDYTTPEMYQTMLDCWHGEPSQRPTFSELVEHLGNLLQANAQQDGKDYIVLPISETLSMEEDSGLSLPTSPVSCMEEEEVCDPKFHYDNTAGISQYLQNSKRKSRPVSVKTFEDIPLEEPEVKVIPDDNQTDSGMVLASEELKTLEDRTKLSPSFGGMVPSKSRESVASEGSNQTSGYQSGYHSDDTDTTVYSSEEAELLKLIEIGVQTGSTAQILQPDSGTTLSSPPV", "assay": "In vitro VEGFR-2 tyrosine kinase assay (BPS Bioscience)", "type": "biochemical", "conditions": "read-out: VEGFR-2 % inhibition; 10 μM concentration", "how_it_was_run": "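For IC50, ADP formation after a 30-min 30 °C reaction was detected by ADP-Glo luminescence in duplicate, blank-subtracted and fitted as log inhibitor versus normalised response. The 10 µM single-dose test instead measured remaining ATP (Kinase-Glo Plus) after 40 min at 30 °C with poly(Glu,Tyr) substrate, 10 μM ATP, pH 7.4, 1% DMSO.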"}, "[5]": {"system": "RPMI-8226", "assay": "NCI 60 cell panel SRB screen", "type": "cell-based", "conditions": "Homo sapiens; RPMI-8226, single dose 10 μM; read-out: percent cell growth promotion"}, "[6]": {"system": "HT29", "assay": "NCI 60 cell panel SRB screen", "type": "cell-based", "conditions": "Homo sapiens, HT-29; HT29, single dose 10 μM; read-out: percent cell growth promotion"}, "[7]": {"system": "TK-10", "assay": "NCI 60 cell panel SRB screen", "type": "cell-based, human", "conditions": "Homo sapiens; TK-10, single dose 10 μM; read-out: percent cell growth promotion"}, "[8]": {"system": "SK-MEL-5", "assay": "NCI 60 cell panel SRB screen", "type": "cell-based", "conditions": "Homo sapiens, SK-MEL-5, read-out: percent cell growth promotion"}, "[9]": {"system": "T-47D", "assay": "NCI 60 cell panel SRB screen", "type": "cell-based", "conditions": "Homo sapiens, T47D, read-out: percent cell growth promotion"}, "[10]": {"system": "OVCAR-8", "assay": "NCI 60 cell panel SRB screen", "type": "cell-based", "conditions": "Homo sapiens; OVCAR-8, single dose 10 μM; read-out: percent cell growth promotion"}, "[11]": {"system": "KM12", "assay": "NCI 60 cell panel SRB screen", "type": "cell-based", "conditions": "Homo sapiens; KM12, single dose 10 μM; read-out: percent cell growth promotion"}, "[12]": {"system": "OVCAR-3", "assay": "NCI 60 cell panel SRB screen", "type": "cell-based", "conditions": "Homo sapiens; OVCAR-3, single dose 10 μM; read-out: percent cell growth promotion"}, "[13]": {"system": "CCRF-CEM", "assay": "NCI 60 cell panel SRB screen", "type": "cell-based, human", "conditions": "Homo sapiens, single dose 10 μM, read-out: percent cell growth promotion"}, "[14]": {"system": "NCI-H460", "assay": "NCI 60 cell panel SRB screen", "type": "cell-based", "conditions": "Homo sapiens; NCI-H460, single dose 10 μM; read-out: percent cell growth promotion"}, "[15]": {"system": "NCI-H322M", "assay": "NCI 60 cell panel SRB screen", "type": "cell-based", "conditions": "Homo sapiens, single dose 10 μM, read-out: percent cell growth promotion"}, "[16]": {"system": "NCI-H226", "assay": "NCI 60 cell panel SRB screen", "type": "cell-based", "conditions": "Homo sapiens; NCI-H226, single dose 10 μM; read-out: percent cell growth promotion"}, "[17]": {"system": "HCC-2998", "assay": "NCI 60 cell panel SRB screen", "type": "cell-based", "conditions": "Homo sapiens; HCC-2998, single dose 10 μM; read-out: percent cell growth promotion"}, "[18]": {"system": "HL-60(TB)", "assay": "NCI 60 cell panel SRB screen", "type": "cell-based", "conditions": "Homo sapiens, single dose 10 μM, read-out: percent cell growth promotion"}, "[19]": {"system": "PC-3", "assay": "NCI 60 cell panel SRB screen", "type": "cell-based", "conditions": "Homo sapiens; PC-3, single dose 10 μM; read-out: percent cell growth promotion"}, "[20]": {"system": "LOX IMVI", "assay": "NCI 60 cell panel SRB screen", "type": "cell-based", "conditions": "Homo sapiens, read-out: percent cell growth promotion"}}, "data": [{"smiles": "O=C(Nc1ccc(Cl)cc1)Nc1ccc(Oc2nnc(Cl)c3ccccc23)cc1", "note": "[Compound 13b, 1–(4-Chlorophenyl)-3–(4-(4-chlorophthalazin-1-yloxy)phenyl)urea]", "values": [{"measurement": "activity at 10 µM", "setting": "[1]", "result": 99.7, "unit": "%"}, {"measurement": "activity at 10 µM", "setting": "[2]", "result": 82.8, "unit": "%"}, {"measurement": "activity at 10 µM", "setting": "[3]", "result": 103, "unit": "%"}, {"measurement": "inhibition at 10 µM", "setting": "[4]", "result": 38, "unit": "%"}, {"measurement": "activity at 10 µM", "setting": "[5]", "result": 87.7, "unit": "%"}, {"measurement": "activity at 10 µM", "setting": "[6]", "result": 95.8, "unit": "%"}, {"measurement": "activity at 10 µM", "setting": "[7]", "result": 109, "unit": "%"}, {"measurement": "activity at 10 µM", "setting": "[8]", "result": 95.5, "unit": "%"}, {"measurement": "activity at 10 µM", "setting": "[9]", "result": 70.5, "unit": "%"}, {"measurement": "activity at 10 µM", "setting": "[10]", "result": 86, "unit": "%"}, {"measurement": "activity at 10 µM", "setting": "[11]", "result": 84.5, "unit": "%"}, {"measurement": "activity at 10 µM", "setting": "[12]", "result": 85.4, "unit": "%"}, {"measurement": "activity at 10 µM", "setting": "[13]", "result": 66, "unit": "%"}, {"measurement": "activity at 10 µM", "setting": "[14]", "result": 98.1, "unit": "%"}, {"measurement": "activity at 10 µM", "setting": "[15]", "result": 99.1, "unit": "%"}, {"measurement": "activity at 10 µM", "setting": "[16]", "result": 81.4, "unit": "%"}, {"measurement": "activity at 10 µM", "setting": "[17]", "result": 115, "unit": "%"}, {"measurement": "activity at 10 µM", "setting": "[18]", "result": 67.3, "unit": "%"}, {"measurement": "activity at 10 µM", "setting": "[19]", "result": 67.8, "unit": "%"}, {"measurement": "activity at 10 µM", "setting": "[20]", "result": 86.2, "unit": "%"}]}]}
